Results published in PubChem BioAssay (NCI).
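These data come from cells grown in 96-well plates and exposed to compound for 48 hours at five concentrations. TGI: concentration producing complete growth inhibition.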

Columns and labels:
Assay in all cases: NCI tumour cell line growth inhibition, 48 h
786-0 renal = system: 786-0 renal
A498 renal = system: A498 renal
A549 NSCLC = system: A549 NSCLC
ACHN renal = system: ACHN renal
BT-549 breast = system: BT-549 breast
CAKI-1 renal = system: CAKI-1 renal
DU-145 prostate = system: DU-145 prostate
EKVX NSCLC = system: EKVX NSCLC
HCC-2998 colon = system: HCC-2998 colon
HCT-116 colon = system: HCT-116 colon
HCT-15 colon = system: HCT-15 colon
HL-60(TB) leukemia = system: HL-60(TB) leukemia
HOP-62 NSCLC = system: HOP-62 NSCLC
HOP-92 NSCLC = system: HOP-92 NSCLC
HS 578T breast = system: HS 578T breast
HT29 colon = system: HT29 colon
IGROV1 ovarian = system: IGROV1 ovarian
K-562 leukemia = system: K-562 leukemia
KM12 colon = system: KM12 colon
LOX IMVI melanoma = system: LOX IMVI melanoma
M14 melanoma = system: M14 melanoma
MCF7 breast = system: MCF7 breast
MDA-MB-231 breast = system: MDA-MB-231 breast
MDA-MB-435 = system: MDA-MB-435
MDA-N = system: MDA-N
MOLT-4 leukemia = system: MOLT-4 leukemia
NCI-H226 lung = system: NCI-H226 lung
NCI-H23 lung = system: NCI-H23 lung
NCI-H460 lung = system: NCI-H460 lung
NCI-H522 lung = system: NCI-H522 lung
NCI/ADR-RES ovarian = system: NCI/ADR-RES ovarian
OVCAR-3 ovarian = system: OVCAR-3 ovarian
OVCAR-4 ovarian = system: OVCAR-4 ovarian
OVCAR-5 ovarian = system: OVCAR-5 ovarian
OVCAR-8 ovarian = system: OVCAR-8 ovarian
PC-3 prostate = system: PC-3 prostate
RPMI-8226 leukemia = system: RPMI-8226 leukemia
RXF 393 renal = system: RXF 393 renal
SF-268 CNS = system: SF-268 CNS
SF-295 CNS = system: SF-295 CNS
SF-539 CNS = system: SF-539 CNS
SK-MEL-2 melanoma = system: SK-MEL-2 melanoma
SK-MEL-28 melanoma = system: SK-MEL-28 melanoma
SK-MEL-5 melanoma = system: SK-MEL-5 melanoma
SNB-75 CNS = system: SNB-75 CNS
SR leukemia = system: SR leukemia
SW-620 colon = system: SW-620 colon
T-47D breast = system: T-47D breast
TK-10 renal = system: TK-10 renal
U251 CNS = system: U251 CNS
UACC-257 melanoma = system: UACC-257 melanoma
UO-31 renal = system: UO-31 renal
CCRF-CEM leukemia = system: CCRF-CEM leukemia
COLO 205 colon = system: COLO 205 colon
MALME-3M melanoma = system: MALME-3M melanoma
SK-OV-3 ovarian = system: SK-OV-3 ovarian
SN12C renal = system: SN12C renal
SNB-19 CNS = system: SNB-19 CNS
UACC-62 melanoma = system: UACC-62 melanoma

Compound: C/C=C(\C)[C@@H](O)C(=O)O[C@@H]1CC(C(C)(C)O)[C@](C)(CCC(=O)OC)[C@H]2[C@H](OC(=O)[C@H](O)[C@H](C)CC)C[C@]3(C)C(=CC[C@H]3[C@H]3CO[C@H](C=C(C)C)C3)[C@]12C (stereo partly drawn)
- TGI (786-0 renal): 29.5 µM
- TGI (A498 renal): 60.2 µM
- TGI (A549 NSCLC): 61.7 µM
- TGI (ACHN renal): 34.1 µM
- TGI (BT-549 breast): 32.7 µM
- TGI (CAKI-1 renal): 87.2 µM
- TGI (DU-145 prostate): 98.5 µM
- TGI (EKVX NSCLC): 29.8 µM
- TGI (HCC-2998 colon): 29.7 µM
- TGI (HCT-116 colon): 31.9 µM
- TGI (HCT-15 colon): 37.4 µM
- TGI (HL-60(TB) leukemia): 40.6 µM
- TGI (HOP-62 NSCLC): > 100 µM
- TGI (HOP-92 NSCLC): 71.7 µM
- TGI (HS 578T breast): 41 µM
- TGI (HT29 colon): 34.5 µM
- TGI (IGROV1 ovarian): > 100 µM
- TGI (K-562 leukemia): 42.4 µM
- TGI (KM12 colon): 65.3 µM
- TGI (LOX IMVI melanoma): 31.4 µM
- TGI (M14 melanoma): 32.8 µM
- TGI (MCF7 breast): 42.1 µM
- TGI (MDA-MB-231 breast): 38.4 µM
- TGI (MDA-MB-435): 52.5 µM
- TGI (MDA-N): 35.4 µM
- TGI (MOLT-4 leukemia): 48.2 µM
- TGI (NCI-H226 lung): 50.9 µM
- TGI (NCI-H23 lung): 37.7 µM
- TGI (NCI-H460 lung): 38.6 µM
- TGI (NCI-H522 lung): 29.5 µM
- TGI (NCI/ADR-RES ovarian): 30.5 µM
- TGI (OVCAR-3 ovarian): 44.2 µM
- TGI (OVCAR-4 ovarian): 41.8 µM
- TGI (OVCAR-5 ovarian): 43.2 µM
- TGI (OVCAR-8 ovarian): 33.9 µM
- TGI (PC-3 prostate): 34.9 µM
- TGI (RPMI-8226 leukemia): 38.3 µM
- TGI (RXF 393 renal): 32.9 µM
- TGI (SF-268 CNS): 36.8 µM
- TGI (SF-295 CNS): > 100 µM
- TGI (SF-539 CNS): 35.8 µM
- TGI (SK-MEL-2 melanoma): 32.4 µM
- TGI (SK-MEL-28 melanoma): 40.3 µM
- TGI (SK-MEL-5 melanoma): 33.2 µM
- TGI (SNB-75 CNS): 37.6 µM
- TGI (SR leukemia): 40.2 µM
- TGI (SW-620 colon): 58 µM
- TGI (T-47D breast): 87.1 µM
- TGI (TK-10 renal): 61.7 µM
- TGI (U251 CNS): 33.4 µM
- TGI (UACC-257 melanoma): 49.9 µM
- TGI (UO-31 renal): 33.5 µM

Compound: C[N+](C)(C)CCN(Cc1cccs1)c1ccccn1
- TGI (786-0 renal): > 100 µM
- TGI (A498 renal): > 100 µM
- TGI (A549 NSCLC): > 100 µM
- TGI (ACHN renal): > 100 µM
- TGI (BT-549 breast): > 100 µM
- TGI (CAKI-1 renal): > 100 µM
- TGI (CCRF-CEM leukemia): > 100 µM
- TGI (COLO 205 colon): > 100 µM
- TGI (DU-145 prostate): > 100 µM
- TGI (HCC-2998 colon): > 100 µM
- TGI (HCT-116 colon): > 100 µM
- TGI (HCT-15 colon): > 100 µM
- TGI (HL-60(TB) leukemia): > 100 µM
- TGI (HOP-62 NSCLC): > 100 µM
- TGI (HOP-92 NSCLC): 73.9 µM
- TGI (HS 578T breast): > 100 µM
- TGI (IGROV1 ovarian): > 100 µM
- TGI (K-562 leukemia): > 100 µM
- TGI (KM12 colon): > 100 µM
- TGI (LOX IMVI melanoma): > 100 µM
- TGI (M14 melanoma): > 100 µM
- TGI (MALME-3M melanoma): > 100 µM
- TGI (MCF7 breast): > 100 µM
- TGI (MDA-MB-231 breast): > 100 µM
- TGI (MDA-MB-435): > 100 µM
- TGI (MDA-N): > 100 µM
- TGI (NCI-H226 lung): > 100 µM
- TGI (NCI-H23 lung): > 100 µM
- TGI (NCI-H460 lung): > 100 µM
- TGI (NCI-H522 lung): > 100 µM
- TGI (NCI/ADR-RES ovarian): > 100 µM
- TGI (OVCAR-3 ovarian): > 100 µM
- TGI (OVCAR-4 ovarian): > 100 µM
- TGI (OVCAR-8 ovarian): > 100 µM
- TGI (PC-3 prostate): > 100 µM
- TGI (RPMI-8226 leukemia): > 100 µM
- TGI (RXF 393 renal): > 100 µM
- TGI (SF-268 CNS): > 100 µM
- TGI (SF-295 CNS): > 100 µM
- TGI (SF-539 CNS): > 100 µM
- TGI (SK-MEL-2 melanoma): > 100 µM
- TGI (SK-MEL-28 melanoma): > 100 µM
- TGI (SK-MEL-5 melanoma): > 100 µM
- TGI (SK-OV-3 ovarian): > 100 µM
- TGI (SN12C renal): > 100 µM
- TGI (SNB-19 CNS): > 100 µM
- TGI (SNB-75 CNS): > 100 µM
- TGI (SR leukemia): > 100 µM
- TGI (SW-620 colon): > 100 µM
- TGI (T-47D breast): > 100 µM
- TGI (TK-10 renal): > 100 µM
- TGI (U251 CNS): > 100 µM
- TGI (UACC-257 melanoma): > 100 µM
- TGI (UACC-62 melanoma): > 100 µM
- TGI (UO-31 renal): > 100 µM

Compound: O=C1C(Cl)C(c2cc3cc(Br)ccc3nc2Cl)N1c1ccc(F)c(Cl)c1 (stereo not drawn)
- TGI (786-0 renal): 2.25 µM
- TGI (A498 renal): 15.1 µM
- TGI (A549 NSCLC): 43.5 µM
- TGI (ACHN renal): 24.2 µM
- TGI (BT-549 breast): 25.9 µM
- TGI (COLO 205 colon): 22.5 µM
- TGI (DU-145 prostate): 22.1 µM
- TGI (EKVX NSCLC): 3.62 µM
- TGI (HCC-2998 colon): 21.7 µM
- TGI (HCT-116 colon): 18.9 µM
- TGI (HCT-15 colon): 27.6 µM
- TGI (HL-60(TB) leukemia): 18.6 µM
- TGI (HOP-62 NSCLC): 6.39 µM
- TGI (HOP-92 NSCLC): 2.72 µM
- TGI (HS 578T breast): 75 µM
- TGI (HT29 colon): 26.5 µM
- TGI (IGROV1 ovarian): 2.14 µM
- TGI (K-562 leukemia): 17 µM
- TGI (KM12 colon): 7.77 µM
- TGI (M14 melanoma): 21.8 µM
- TGI (MALME-3M melanoma): 22.8 µM
- TGI (MCF7 breast): 20.1 µM
- TGI (MDA-MB-231 breast): 24.8 µM
- TGI (MDA-MB-435): 17.7 µM
- TGI (MDA-N): 22.3 µM
- TGI (MOLT-4 leukemia): 4.74 µM
- TGI (NCI-H226 lung): 40.2 µM
- TGI (NCI-H23 lung): 19 µM
- TGI (NCI-H460 lung): 24.4 µM
- TGI (NCI-H522 lung): 0.719 µM
- TGI (NCI/ADR-RES ovarian): 29.8 µM
- TGI (OVCAR-3 ovarian): 12.8 µM
- TGI (OVCAR-4 ovarian): 4.96 µM
- TGI (OVCAR-5 ovarian): 24.8 µM
- TGI (OVCAR-8 ovarian): 54 µM
- TGI (PC-3 prostate): 34.2 µM
- TGI (RPMI-8226 leukemia): 5.23 µM
- TGI (RXF 393 renal): 17.3 µM
- TGI (SF-268 CNS): 14.2 µM
- TGI (SF-295 CNS): 23.4 µM
- TGI (SF-539 CNS): 3.66 µM
- TGI (SK-MEL-2 melanoma): 23.5 µM
- TGI (SK-MEL-28 melanoma): 34.5 µM
- TGI (SK-MEL-5 melanoma): 19.8 µM
- TGI (SK-OV-3 ovarian): 26.9 µM
- TGI (SN12C renal): 20.5 µM
- TGI (SNB-19 CNS): 23.1 µM
- TGI (SNB-75 CNS): 21.4 µM
- TGI (SR leukemia): 2.61 µM
- TGI (SW-620 colon): 33 µM
- TGI (T-47D breast): 27.4 µM
- TGI (TK-10 renal): 17 µM
- TGI (U251 CNS): 12.5 µM
- TGI (UACC-257 melanoma): 25.7 µM
- TGI (UACC-62 melanoma): 21.2 µM
- TGI (UO-31 renal): 0.29 µM
